Biological target: T1, wheat germ agglutinin (WGA)
T1 construct: horseradish peroxidase-labelled WGA (WGA-HRP); homodimer
Assay: competitive enzyme-linked lectin assay (ELLA), WGA-HRP vs PAA-GlcNAc
Type: binding, Triticum aestivum

CC(=O)N[C@H]1C(O)O[C@H](CO)[C@@H](O)[C@@H]1O (stereo partly shown) [GlcNAc]
IC50: 35 mM

Source: paper PMC6541351, “Towards the preparation of synthetic outer membrane vesicle models with micromolar affinity to wheat germ agglutinin using a dialkyl thioglycoside” (Beilstein Journal of Organic Chemistry, 2019)
